{"source": "patent US10160762B2", "about": "“6-alkyl dihydropyrazolopyrimidinone compounds as PDE2 inhibitors” (Merck Sharp & Dohme Corp., priority 2015, dated 2018)"}
{"molecular_target": "T1, human PDE2A1 (Homo sapiens, UniProt O00408)", "T1 construct": "GST; purchased BPS Bioscience (San Diego, Calif.) 60020; host or cells: insect cells", "T1 sequence (O00408 1-920 isoform O00408-2)": "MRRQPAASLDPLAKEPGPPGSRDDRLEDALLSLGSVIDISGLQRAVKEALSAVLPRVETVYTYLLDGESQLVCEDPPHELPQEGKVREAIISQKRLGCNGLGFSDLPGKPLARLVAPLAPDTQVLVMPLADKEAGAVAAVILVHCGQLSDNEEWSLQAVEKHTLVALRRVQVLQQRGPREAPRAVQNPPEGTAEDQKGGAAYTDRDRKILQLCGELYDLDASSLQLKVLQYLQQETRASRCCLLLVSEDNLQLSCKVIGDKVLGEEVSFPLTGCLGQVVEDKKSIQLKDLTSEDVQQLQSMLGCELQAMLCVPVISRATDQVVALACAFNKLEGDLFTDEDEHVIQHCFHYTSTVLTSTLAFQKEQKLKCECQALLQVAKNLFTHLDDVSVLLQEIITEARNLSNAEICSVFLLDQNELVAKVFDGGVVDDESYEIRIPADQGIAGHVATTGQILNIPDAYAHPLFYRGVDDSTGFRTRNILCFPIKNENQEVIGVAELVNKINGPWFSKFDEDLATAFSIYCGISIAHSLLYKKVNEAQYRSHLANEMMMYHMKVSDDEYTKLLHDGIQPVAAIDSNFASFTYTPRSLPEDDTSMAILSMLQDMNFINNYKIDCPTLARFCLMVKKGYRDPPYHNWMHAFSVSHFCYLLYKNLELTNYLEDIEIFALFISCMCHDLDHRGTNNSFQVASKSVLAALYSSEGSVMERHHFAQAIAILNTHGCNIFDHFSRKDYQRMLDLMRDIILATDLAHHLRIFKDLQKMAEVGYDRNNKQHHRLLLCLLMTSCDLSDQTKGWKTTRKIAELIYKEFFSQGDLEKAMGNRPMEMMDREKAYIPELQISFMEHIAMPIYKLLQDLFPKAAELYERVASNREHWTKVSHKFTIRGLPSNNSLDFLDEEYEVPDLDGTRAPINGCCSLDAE", "assay": "IMAP FP PDE assay, human PDE2A1", "type": "biochemical", "conditions": "Lab B; read-out: Human PDE2 Ki (nM) Lab B", "experimental": "Selectivity for PDE2, as compared to other PDE families, was assessed using the IMAP® technology. Human PDE10A2 enzyme was prepared from cytosolic fractions of transiently transfected HEK cells. All other PDE's were GST Tag human enzyme expressed in insect cells and were obtained from BPS Bioscience (San Diego, Calif.): PDE1A (Cat#60010), human PDE2A1 (Cat#60020), PDE3A (Cat#60030), PDE4A1A (Cat#60040), PDE5A1 (Cat#60050), PDE6C (Cat#60060), PDE7A (Cat#60070), PDE8A1 (Cat#60080), PDE9A2 (Cat#60090), PDE11A4 (Cat#60110).\nAssays for PDE 1 through 11 were performed in parallel at room temperature in 384-well microtiter plates with an incubation volume of 20.2 μL. Solutions of test compounds were prepared in DMSO and serially diluted with DMSO to yield 30 μL of each of ten solutions differing by 3-fold in concentration, at 32 serial dilutions per plate. […] A Labcyte POD 810 (Labcyte, Sunnyvale, Calif.) was used to dispense 200 nL from each well of the titration plate to make eleven copies of the assay plate for each titration, one copy for each PDE enzyme. A solution of each enzyme (dilution from aliquots, sufficient to produce 20% substrate conversion) and a separate solution of FAM-labeled cAMP or FAM-labeled cGMP from Molecular Devices (Sunnyvale, Calif., product # R7506 or cGMP#R7508), at a final concentration of 50 nM were made in the assay buffer (10 mM Tris HCl, pH 7.2, 10 mM MgCl2, 0.05% NaN3 0.01% Tween-20, and 1 mM DTT). Note that the substrate for PDE2 is 50 nM FAM cAMP containing 1000 nM of cGMP. The enzyme and the substrate were then added to the assay plates in two consecutive additions of 10 μL and then shaken to mix. The reaction was allowed to proceed at room temperature for 60 minutes. A binding solution was then made from the kit components, comprised of 80% Solution A, 20% Solution B and binding reagent at a volume of 1/600 the total binding solution. The enzymatic reaction was stopped by addition of 60 μL of the binding solution to each well of the assay plate. The plates were sealed and shaken for 10 seconds. The plates were incubated at room temperature for one hour, then the parallel and perpendicular fluorescence was measured using a Tecan Genios Pro plate reader (Tecan, Switzerland). The apparent inhibition constants for the compounds against all 11 PDE's was determined from the parallel and perpendicular fluorescent readings as described for PDE10 FP assay using the following apparent KM values for each enzyme and substrate combination: PDE1A (FAM cGMP) 70 nM, human PDE2A1 (FAM cAMP) 10,000 nM, PDE3A (FAM cAMP) 50 nM, PDE4A1A (FAM cAMP) 1500 nM, PDE5A1 (FAM cGMP) 400 nM, PDE6C (FAM cGMP) 700 nM, PDE7A (FAM cAMP) 150 nM, PDE8A1 (FAM cAMP) 50 nM, PDE9A2 (FAM cGMP) 60 nM, PDE10A2 (FAM cAMP) 150 nM, PDE11A4 (FAM cAMP) 1000 nM. The intrinsic PDE2 inhibitory activity of a compound which may be used in accordance with the present invention may be determined by these assays.", "units": {"Ki": "nM"}}
{"smiles": "Cc1nc2c(c(CO)nn2C(C)c2ccc(OC(F)F)c(F)c2)c(=O)[nH]1", "note": "(single isomer, unassigned) [Example 113, (S)- or (R)-1-(1-(4-(Difluoromethoxy)-3-fluorophenyl)ethyl)-3-(hydroxymethyl)-6-methyl-1H-pyrazolo[3,4-d]pyrimidin-4(5H)-one]", "Ki": 3}
{"smiles": "Cc1nc2c(c(CO)nn2C(C)c2ccc3c(c2)OC(F)(F)O3)c(=O)[nH]1", "note": "(single isomer, unassigned) [Example 114, (R)- or (S)-1-(1-(2,2-Difluorobenzo[d][1,3]dioxol-5-yl)ethyl)-3-(hydroxymethyl)-6-methyl-1H-pyrazolo[3,4-d]pyrimidin-4(5H)-one]", "Ki": 1210}
{"smiles": "Cc1nc2c(c(CO)nn2C(C)c2ccc3c(c2)OC(F)(F)O3)c(=O)[nH]1", "note": "(single isomer, unassigned) [Example 115, (S)- or (R)-1-(1-(2,2-Difluorobenzo[d][1,3]dioxol-5-yl)ethyl)-3-(hydroxymethyl)-6-methyl-1H-pyrazolo[3,4-d]pyrimidin-4(5H)-one]", "Ki": 7.2}
{"smiles": "Cc1nc2c(c(CO)nn2C(C)c2ccc(C(C)(F)F)cc2)c(=O)[nH]1", "note": "(single isomer, unassigned) [Example 116, (R)- or (S)-1-(1-(4-(1,1-Difluoroethyl)phenyl)ethyl)-3-(hydroxymethyl)-6-methyl-1H-pyrazolo[3,4-d]pyrimidin-4(5H)-one]", "Ki": 392}
{"smiles": "Cc1nc2c(c(CO)nn2C(C)c2ccc(C(C)(F)F)cc2)c(=O)[nH]1", "note": "(single isomer, unassigned) [Example 117, (S)- or (R)-1-(1-(4-(1,1-Difluoroethyl)phenyl)ethyl)-3-(hydroxymethyl)-6-methyl-1H-pyrazolo[3,4-d]pyrimidin-4(5H)-one]", "Ki": 1.1}
{"smiles": "Cc1nc2c(c(CO)nn2C(C)c2ccc(OC(F)F)cc2F)c(=O)[nH]1", "note": "(single isomer, unassigned) [Example 118, (R)- or (S)-1-(1-(4-(Difluoromethoxy)-2-fluorophenypethyl)-3-(hydroxymethyl)-6-methyl-1H-pyrazolo[3,4-d]pyrimidin-4(5H)-one]", "Ki": 323}
{"smiles": "Cc1nc2c(c(CO)nn2C(C)c2ccc(OC(F)F)cc2F)c(=O)[nH]1", "note": "(single isomer, unassigned) [Example 119, (S)- or (R)-1-(1-(4-(Difluoromethoxy)-2-fluorophenypethyl)-3-(hydroxymethyl)-6-methyl-1H-pyrazolo[3,4-d]pyrimidin-4(5H)-one]", "Ki": 2.7}
{"smiles": "Cc1nc2c(c(CO)nn2C(C)c2ccc(S(F)(F)(F)(F)F)cc2F)c(=O)[nH]1", "note": "(single isomer, unassigned) [Example 120]", "Ki": 496}
{"smiles": "Cc1nc2c(c(CO)nn2C(C)c2ccc(S(F)(F)(F)(F)F)cc2F)c(=O)[nH]1", "note": "(single isomer, unassigned) [Example 121]", "Ki": 2.8}
{"smiles": "Cc1nc2c(c(CO)nn2C(C)c2ccc(CC(F)(F)F)cc2)c(=O)[nH]1", "note": "(single isomer, unassigned) [Example 122, (R)- or (S)-3-(Hydroxymethyl)-6-methyl-1-(1-(4-(2,2,2-trifluoroethyl)phenyl)ethyl)-1H-pyrazolo[3,4-d]pyrimidin-4(5H)-one]", "Ki": 194}
{"smiles": "Cc1nc2c(c(CO)nn2C(C)c2ccc(CC(F)(F)F)cc2)c(=O)[nH]1", "note": "(single isomer, unassigned) [Example 123, (S) or (R)-3-(Hydroxymethyl)-6-methyl-1-(1-(4-(2,2,2-trifluoroethyl)phenyl)ethyl)-1H-pyrazolo[3,4-d]pyrimidin-4(5H)-one]", "Ki": 2.6}
{"smiles": "Cc1nc2c(c(CO)nn2C(C)[C@H]2CC[C@H](C(F)(F)F)CC2)c(=O)[nH]1", "note": "(single isomer, unassigned) [Example 124, (R)- or (S)-3-(Hydroxymethyl)-6-methyl-1-((trans)-4-(trifluoromethyl)cyclohexyl) ethyl)-1H-pyrazolo[3,4-d]-pyrimidin-4(5H)-one]", "Ki": 521}
{"smiles": "Cc1nc2c(c(CO)nn2C(C)[C@H]2CC[C@H](C(F)(F)F)CC2)c(=O)[nH]1", "note": "(single isomer, unassigned) [Example 125, (S)- or (R)-3-(Hydroxymethyl)-6-methyl-1-((trans)-4-(trifluoro-methyl)cyclohexyl)ethyl)-1H-pyrazolo[3,4-d]pyrimidin-4(5H)-one]", "Ki": 26}
{"smiles": "Cc1nc2c(c(CO)nn2C(C)c2ccc(C(F)(F)F)nc2)c(=O)[nH]1", "note": "(single isomer, unassigned) [Example 130, (R)- or (S)-3-(Hydroxymethyl)-6-methyl-1-(1-(6-(trifluoromethyl)pyridin-3-yl)ethyl)-1H-pyrazolo[3,4-d]pyrimidin-4(5H)-one]", "Ki": "≥ 2960"}
{"smiles": "Cc1nc2c(c(CO)nn2C(C)c2ccc(C(F)(F)F)nc2)c(=O)[nH]1", "note": "(single isomer, unassigned) [Example 131, (S)- or (R)-3-(Hydroxymethyl)-6-methyl-1-(1-(6-(trifluoro-methyl)pyridin-3-yl)ethyl)-1H-pyrazolo[3,4-d]pyrimidin-4(5H)-one]", "Ki": 57}
{"smiles": "CCC(c1ccc(C(F)(F)F)cc1)n1nc(CO)c2c(=O)[nH]c(C)nc21", "note": "(single isomer, unassigned) [Example 133, (S)- or (R)-3-(Hydroxymethyl)-6-methyl-1-(1-(4-(trifluoro-methyl)phenyl)propyl)-1H-pyrazolo[3,4-d]pyrimidin-4(5H)-one]", "Ki": 66}
{"smiles": "CCC(c1ccc(OC(F)(F)F)cc1)n1nc(CO)c2c(=O)[nH]c(C)nc21", "note": "(single isomer, unassigned) [Example 134, (R)- or (S)-3-(Hydroxymethyl)-6-methyl-1-(1-(4-(trifluoro-methoxy)phenyl)propyl)-1H-pyrazolo[3,4-d]pyrimidin-4(5H)-one]", "Ki": 51}
{"smiles": "CCC(c1ccc(OC(F)(F)F)cc1)n1nc(CO)c2c(=O)[nH]c(C)nc21", "note": "(single isomer, unassigned) [Example 135, (S)- or (R)-3-(Hydroxymethyl)-6-methyl-1-(1-(4-(trifluoro-methoxy)phenyl)propyl)-1H-pyrazolo[3,4-d]pyrimidin-4(5H)-one]", "Ki": 1}
{"smiles": "Cc1nc2c(c(CO)nn2C(C)c2c(F)cc(C(F)(F)F)cc2F)c(=O)[nH]1", "note": "(single isomer, unassigned) [Example 136]", "Ki": 5}
{"smiles": "Cc1nc2c(c(CO)nn2C(C)c2c(F)cc(C(F)(F)F)cc2F)c(=O)[nH]1", "note": "(single isomer, unassigned) [Example 137]", "Ki": 121}
{"smiles": "Cc1nc2c(c(CO)nn2C(C)c2ccc(C(F)(F)F)c(I)c2)c(=O)[nH]1", "note": "(single isomer, unassigned) [Example 138, (R)- or (S)-3-(Hydroxymethyl)-1-(1-(3-iodo-4-(trifluoromethyl-)phenyl)ethyl)-6-methyl-1,5-dihydro-4H-pyrazolo[3,4-d]pyrimidin-4-one]", "Ki": "> 2960"}
{"smiles": "Cc1nc2c(c(CO)nn2C(C)c2ccc(C(F)(F)F)c(I)c2)c(=O)[nH]1", "note": "(single isomer, unassigned) [Example 139, (S)- or (R)-3-(Hydroxymethyl)-1-(1-(3-iodo-4-(trifluoromethyl-)phenyl)ethyl)-6-methyl-1,5-dihydro-4H-pyrazolo[3,4-d]pyrimidin-4-one]", "Ki": 5.6}
{"smiles": "Cc1nc2c(c(CO)nn2C(C)c2ccc(C(F)(F)F)cc2I)c(=O)[nH]1", "note": "(single isomer, unassigned) [Example 140, (R)- or (S)-3-(Hydroxymethyl)-1-(1-(2-iodo-4-(trifluoromethyl-)phenyl)ethyl)-6-methyl-1,5-dihydro-4H-pyrazolo[3,4-d]pyrimidin-4-one]", "Ki": 939}
